Results: ChEMBL document CHEMBL4400555, “Structure-activity relationships of trichothecenes against COLO201 cells and Cochliobolus miyabeanus: The role of 12-epoxide and macrocyclic moieties” (Bioorg Med Chem Lett, 2019)
Activity calls are given as the source filed them. The calls are words filed in the database; no cut-off is given here.

What was measured:
[1] = tested on: COLO 201; experiment: Antiproliferative activity against human COLO201 cells after 24 hrs by WST-1 assay; format: functional, cell-based
[2] = tested on: Bipolaris oryzae; experiment: Antifungal activity against Cochliobolus miyabeanus 131004 assessed as zone of inhibition at 10 ug/disk after 4 days by paper disk method; format: functional; conditions: Bipolaris oryzae, 131004, 96 h; read-out: IZ
[3] = tested on: Bipolaris oryzae; experiment: Antifungal activity against Cochliobolus miyabeanus 131004 assessed as zone of inhibition at 50 ug/disk after 4 days by paper disk method; format: functional, organism-based
[4] = tested on: Bipolaris oryzae; experiment: Antifungal activity against Cochliobolus miyabeanus 131004 assessed as zone of inhibition at 100 ug/disk after 4 days by paper disk method; format: functional; conditions: Bipolaris oryzae, 131004, 96 h; read-out: IZ
[5] = tested on: Bipolaris oryzae; experiment: Antifungal activity against Cochliobolus miyabeanus 131004 assessed as zone of inhibition at 500 ug/disk after 4 days by paper disk method; format: functional; conditions: Bipolaris oryzae, 131004, 96 h; read-out: IZ

| SMILES | IC50 ([1]; colo 201) | zone of inhibition at 10 µg/disc [2] | IC50 ([1]; Homo sapiens, COLO 201, 24 h) | also measured |
| --- | --- | --- | --- | --- |
| CC1=C[C@H]2O[C@@H]3C[C@H]4OC(=O)/C=C\C=C\[C@@H]5O[C@H](C/C(C)=C/C(=O)OC[C@@]2(C[C@@H]1O)[C@]4(C)[C@]31CO1)O[C@H]5C | 51 µM |  |  |  |
| CC1=C[C@H]2O[C@@H]3[C@H](O)C[C@](C)([C@@]2(CO)[C@H](O)C1=O)[C@]31CO1 [DEOXYNIVALENOL] | 86 µM |  |  |  |
| CC(=O)O[C@@H]1C[C@H]2O[C@@H]3C=C(C)CC[C@]3(C)[C@]1(C)[C@]21CO1 | 123 µM |  |  |  |
| CC1=C[C@H]2O[C@@H]3C[C@H]4OC(=O)/C=C\C=C\[C@@H]5O[C@H](C/C(C)=C/C(=O)OC[C@@]2(CC1)[C@]4(C)[C@]31CO1)O[C@H]5C | 82 µM |  |  |  |
| CC(=O)O[C@H]1C[C@@]23COC(=O)/C=C(\C)C[C@@H]4O[C@@H](C)[C@H](/C=C/C=C\C(=O)O[C@@H]5C[C@@H](O[C@@H]2C=C1C)[C@@]1(CO1)[C@]53C)O4 | 46 µM |  |  |  |
| CC1=C[C@H]2O[C@@H]3C[C@H]4OC(=O)/C=C\C=C\[C@@H]5O[C@@H](O[C@H]5C)[C@H](O)/C(C)=C/C(=O)OC[C@@]2(CC1)[C@]4(C)[C@]31CO1 | 42 µM |  |  |  |
| CC1=C[C@H]2O[C@@H]3C[C@H]4OC(=O)/C=C\C=C\[C@@H]([C@@H](C)O)OCC/C(C)=C/C(=O)OC[C@@]2(CC1)[C@]4(C)[C@]31CO1 | 47 µM |  |  |  |
| C=C1[C@H]2CC[C@]1(C)[C@@]1(CO)[C@H](O)C(=O)C(C)=C[C@H]1O2 |  | 0 mm | > 700 µM | inhibition zone (IZ) [3]: inactive |
| C=C1[C@H]2C[C@H]3OC(=O)/C=C\C=C\[C@@H]4O[C@@H](O[C@H]4C)[C@H](O)/C(C)=C/C(=O)OC[C@@]4(CCC(C)=C[C@H]4O2)[C@]13C |  | 0 mm | 50 µM | zone of inhibition at 100 µg/disc [4]: 0 mm; zone of inhibition at 500 µg/disc [5]: 0 mm |
| C=C1[C@H]2C[C@@H](OC(C)=O)[C@]1(C)[C@@]1(C)CCC(C)=C[C@H]1O2 |  | 0 mm | 420 µM | zone of inhibition at 100 µg/disc [4]: 0 mm; zone of inhibition at 500 µg/disc [5]: 0 mm |
| C=C1[C@H]2C[C@H]3OC(=O)/C=C\C=C\[C@@H]([C@@H](C)O)OCC/C(C)=C/C(=O)OC[C@@]4(CCC(C)=C[C@H]4O2)[C@]13C |  | 0 mm | 51 µM | zone of inhibition at 100 µg/disc [4]: 0 mm; zone of inhibition at 500 µg/disc [5]: 0 mm |
